Assay results published in US20220031680A1, “Donecopride As Neuroprotective Agent In the Treatment of Neurodegenerative Diseases” (priority 2018, published 2022).

Assays:
[1] = tested on: amyloid plaques; assay: Number of amyloid plaques (thioflavin T) in 5×FAD mouse brain; type: in vivo; details: 1 mg/kg twice a week for 3 months; for Amyloid plaque number in hippocampus: compared to controls
Method: 5×FAD mice received chronic treatments with drugs or vehicle according to 2 different protocols. In each experiment, drugs or vehicle solution were administered i.p. twice a week (1 mg/kg). In “Protocol 1”, mice (n=6-7 mice per group) were treated with compounds for two months, from 2 to 4 months of age. In “Protocol 2”, mice (n=7) were treated with compounds for three months, from 1 month to 4 months of age. At the end of each protocol, mice were anesthetized with a mixture of 100 mg/kg ketamine and 10 mg/kg xylazine in saline solution and perfused transcardially with PBS. Brains were quickly isolated on ice, the olfactory bulbs and cerebellum removed and the two hemispheres divided. One hemisphere was frozen on dry ice and stored at −80° C. for biochemical analysis, while the other was post-fixed in 4% PFA for immunohistochemistry (IHC).
Thirty-micrometer-thick sections were cut using a vibratome (Microm HM 650V, Thermo Scientific, Saint Herblain, France) and stored in cryoprotectant medium at −20° C. For the labeling of amyloid plaques, free-floating tissue sections of frontal cortex, hippocampus and entorhinal cortex (coordinates from the bregma: frontal cortex=1.98 mm, hippocampus=−1.94 mm, entorhinal cortex=−3.08 mm) were extensively washed in PBS and then incubated in blocking solution (PBS; 3% BSA; 0.1% Triton X-100) for 1 h. Sections were stained with Hoechst dye (1:1000, Life Technologies, Saint Aubin, France) for 15 minutes to detect cell nuclei and then with freshly prepared thioflavin T solution (#T3516-5G, Sigma-Aldrich) (final concentration: 0.01 mg/ml in blocking buffer) for 15 minutes. After washing in 70% ethanol for 5 minutes, samples were mounted on poly-lysine slides with coverslips. For GFAP (glial fibrillary acidic protein) staining, free-floating brain sections were blocked as before and incubated with polyclonal rabbit anti-GFAP (1:1000, Z0334, Dako, Les Ullis, France) at 4° C. overnight. After thioflavin T staining and washing with 70% ethanol, the secondary Alexafluor 594 goat anti-rabbit antibody (1:1000, A11012, Life Technologies) was added for 2 h. PBS washes and mounting were performed as described before.
Images were acquired with an Axiolmager Z1 microscope (Carl Zeiss S.A.S., Marly le Roi, France). Analysis of thioflavin T staining was performed blindly and data are presented as the mean number of particles per mm^2 in two to three tissue sections from the same brain area/animal (Image J software). GFAP expression was quantified using Image J software and results are expressed as area fractions.
28 female 5×FAD mice (C57BL/6J genetic background) were used in this study. Mice received vehicle or compounds (1 mg/kg) i.p., twice a week for three months, from 1 to 4 months of age.
Anti-amyloid effect. Frontal cortex, hippocampus and entorhinal cortex were analyzed as representative areas of 5×FAD mouse brain (frontal, median and caudal sections) and of human brain regions that are affected early by Alzheimer's disease and are highly enriched in amyloid deposits.

[2] = tested on: 5×FAD mice; assay: Novel object recognition test in 5×FAD mice; type: in vivo, mouse; details: 1 mg/kg twice a week for 3 months; 24 h inter-session interval
Method: Animal experiments were carried out in accordance with the Directive by the Council of the European Communities of Nov. 24, 1986 (86/609/EEC). All efforts were made to minimize animal suffering and to reduce the number of mice used. The generation of 5×FAD mice was described in Oakley et al. (2006) J. Neurosci. 26:10129-10140. These transgenic mice overexpress both human APP (695) harboring the Swedish (K670N, M671L), Florida (1716V) and London (V7171) familial AD (FAD) mutations and human Presenilin 1 (PS1) harboring the two FAD mutations M146L and L286V. Expression of both transgenes is regulated by neuronal-specific elements of the mouse Thy1 promoter. The 5×FAD strain (B6/SJL genetic background) was maintained by crossing hemizygous transgenic mice with B6/SJL F1 breeders. The 5×FAD strain (C57BL/6J genetic background) was maintained by crossing hemizygous transgenic mice with C57BL/6J F1 breeders. All animals were genotyped by PCR using tail genomic DNA. Transgenic and WT mice were bred in our animal facility, had access to food and water ad libitum and were housed under a 12 h light-dark cycle at 22-24° C. Female 5×FAD mice were used in this study. For each experiment, the age of mice is indicated in months (with a two-week range).
Compounds were resuspended in DMSO (37.5 μg/μl, stored at −20° C.) and freshly diluted 1:250 in 0.9% NaCl prior administration. Vehicle solution (0.9% NaCl, 0.4% DMSO) was used as control.
5×FAD mice received chronic treatments with drugs or vehicle according to 2 different protocols. In each experiment, drugs or vehicle solution were administered i.p. twice a week (1 mg/kg). […]
The cognitive performance of mice was tested using the novel object recognition (NOR) test (Bevins and Besheer (2006) Nat. Protoc. 1:1306-1311). […] The whole experiment was video-recorded and object exploration [time spent by the mouse nose in contact with the object or by sniffing it at a distance s 1 cm] was blindly measured. […] A discrimination index was also calculated ([novel−familiar]/[familiar+novel]). […]

Structure (SMILES) | Amyloid plaque number in hippocampus [1] | reduction of the number of amyloid plaques in entorhinal cortex ([1]; compared to vehicle) [%] | recognition memory, exploration of novel vs familiar object (NOR) [2] | reduction of the number of amyloid plaques in frontal cortex ([1]; compared to vehicle) [%]
COc1cc(N)c(F)cc1C(=O)CCC1CCN(CC2CCCCC2)CC1 [Flucopride] | not significantly different | 28±6 | prevent memory alteration | 
COc1cc(N)c(Cl)cc1C(=O)CCC1CCN(CC2CCCCC2)CC1 [Donecopride] | not significantly different | 24±4 | prevent memory alteration | 16±3
